Where a name gives a salt, the structure may show the parent alone. Values belong to the compound of their own block, whether it stands above or below them.
Structure (SMILES): COc1ccc(C(=O)N2CCN(C(=O)c3nc4c(s3)C(=O)C=C(NCCN(C)C)C4=O)CC2)cc1 [Example 37, 5-{[2-(dimethylamino)ethyl]amino}-2-{[4-(4-methoxybenzoyl)piperazin-1-yl]carbonyl}-1,3-benzothiazole-4,7-dione]
- melting point: 209 to 210 °C

Structure (SMILES): CN(C)CCNC1=CC(=O)c2sc(C(=O)NCc3ccccc3)nc2C1=O [Example 12, N-benzyl-5-{[2-(dimethylamino)ethyl]amino}-4,7-dioxo-4,7-dihydro-1,3-benzothiazole-2-carboxamide]
- melting point: 188 to 189 °C

Structure (SMILES): CCNC(=O)c1nc2c(s1)C(=O)C=C(N(C)CCN(C)C)C2=O [Example 38, 5-[[2-(dimethylamino)ethyl](methyl)amino]-N-ethyl-4,7-dioxo-4,7-dihydro-1,3-benzothiazole-2-carboxamide]
- melting point: 163 to 164 °C

Structure (SMILES): CCNC(=O)c1nc2c(s1)C(=O)C=C(NCCN(C)C)C2=O [Example 24, 5-{[2-(dimethylamino)ethyl]amino}-N-ethyl-4,7-dioxo-4,7-dihydro-1,3-benzothiazole-2-carboxamide]
- melting point: 174 to 175 °C

Structure (SMILES): COc1ccc(NC(=O)c2nc3c(s2)C(=O)C=C(NCCN(C)C)C3=O)cc1 (as salt: methanesulphonate) [Example 18, 5-{[2-(dimethylamino)ethyl]amino}-N-(4-methoxyphenyl)-4,7-dioxo-4,7-dihydro-1,3-benzothiazole-2-carboxamide]
- melting point: 207 to 208 °C

Structure (SMILES): CN(C)CCNC1=CC(=O)c2sc(C(=O)N3CCN(C(=O)C4CCCO4)CC3)nc2C1=O (centres unmarked) [Example 20, 5-{[2-(dimethylamino)ethyl]amino}-2-{[4-(tetrahydrofuran-2-ylcarbonyl)piperazin-1-yl]carbonyl}-1,3-benzothiazole-4,7-dione]
- melting point: 168 to 169 °C

Structure (SMILES): COc1ccc(NC(=O)c2nc3c(s2)C(=O)C=C(NCCN(C)C)C3=O)cc1F [Example 35, 5-{[2-(dimethylamino)ethyl]amino}-N-(3-fluoro-4-methoxyphenyl)-4,7-dioxo-4,7-dihydro-1,3-benzothiazole-2-carboxamide]
- melting point: 199 to 200 °C

Structure (SMILES): CN(C)CCNC1=CC(=O)c2sc(C(=O)NCCOCCOCCNC(=O)OC(C)(C)C)nc2C1=O [Example 2, tert-butyl {2-[2-(2-{[(5-{[2-(dimethylamino)ethyl]amino}-4,7-dioxo-4,7-dihydro-1,3-benzothiazol-2-yl)carbonyl]amino}ethoxy)ethoxy]ethyl}carbamate]
- melting point: 55 to 57 °C

Structure (SMILES): CN(C)CCNC1=CC(=O)c2sc(C(=O)N3CCCC3)nc2C1=O [Example 22, 5-{[2-(dimethylamino)ethyl]amino}-2-(pyrrolidin-1-ylcarbonyl)-1,3-benzothiazole-4,7-dione]
- melting point: 207 to 208 °C

Structure (SMILES): CCNC(=O)c1nc2c(s1)C(=O)C=C(NCCc1ccc(F)cc1)C2=O [Example 39, N-ethyl-5-{[2-(4-fluorophenyl)ethyl]amino}-4,7-dioxo-4,7-dihydro-1,3-benzothiazole-2-carboxamide]
- melting point: 260 to 261 °C

Structure (SMILES): CN(C)CCNC1=CC(=O)c2sc(C(=O)N3CCN(C(=O)N4CCOCC4)CC3)nc2C1=O [Example 16, 5-{[2-(dimethylamino)ethyl]amino}-2-{[4-(morpholin-4-ylcarbonyl)piperazin-1-yl]carbonyl}-1,3-benzothiazole-4,7-dione]
- melting point: 211 to 212 °C

Structure (SMILES): CN(C)CCNC1=CC(=O)c2sc(C(=O)Nc3ccc4c(c3)OCO4)nc2C1=O [Example 26, N-1,3-benzodioxol-5-yl-5-{[2-(dimethylamino)ethyl]amino}-4,7-dioxo-4,7-dihydro-1,3-benzothiazole-2-carboxamide]
- melting point: 220 to 221 °C

Structure (SMILES): COCCN(CCOC)C(=O)c1nc2c(s1)C(=O)C=C(NCCN(C)C)C2=O [Example 4, 5-{[2-(dimethylamino)ethyl]amino}-N,N-bis(2-methoxyethyl)-4,7-dioxo-4,7-dihydro-1,3-benzothiazole-2-carboxamide]
- melting point: 92 to 94 °C

Structure (SMILES): CN(C)CCNC1=CC(=O)c2sc(C(=O)NCC3CCCCC3)nc2C1=O [Example 13, N-(cyclohexylmethyl)-5-{[2-(dimethylamino)ethyl]amino}-4,7-dioxo-4,7-dihydro-1,3-benzothiazole-2-carboxamide]
- melting point: 171 to 172 °C

Results, then the compound that gave them:

- melting point: 201 to 202 °C
Structure (SMILES): CN(C)CCNC1=CC(=O)c2sc(C(=O)N3CCN(S(C)(=O)=O)CC3)nc2C1=O [Example 19, 5-{[2-(dimethylamino)ethyl]amino}-2-{[4-(methylsulphonyl)piperazin-1-yl]carbonyl}-1,3-benzothiazole-4,7-dione]

- melting point: 207 to 208 °C
Structure (SMILES): CN(C)CCNC1=CC(=O)c2sc(C(=O)N3CCOCC3)nc2C1=O [Example 1, 5-{[2-(dimethylamino)ethyl]amino}-2-(morpholin-4-ylcarbonyl)-1,3-benzothiazole-4,7-dione]

- melting point: 154 to 156 °C
Structure (SMILES): CN(C)CCNC1=CC(=O)c2sc(C(=O)NCCCN3CCCC3=O)nc2C1=O [Example 5, 5-{[2-(dimethylamino)ethyl]amino}-4,7-dioxo-N-[3-(2-oxopyrrolidin-1-yl)propyl]-4,7-dihydro-1,3-benzothiazole-2-carboxamide]

- melting point: 161 to 162 °C
Structure (SMILES): CN(C)CCNC1=C(Br)C(=O)c2sc(C(=O)N3CCN(C(=O)C4CCCO4)CC3)nc2C1=O (centres unmarked) [Example 21, 6-bromo-5-{[2-(dimethylamino)ethyl]amino}-2-{[4-(tetrahydrofuran-2-ylcarbonyl)piperazin-1-yl]carbonyl}-1,3-benzothiazole-4,7-dione]

- melting point: 224 to 225 °C
Structure (SMILES): CN(C)CCNC1=CC(=O)c2nc(C(=O)N3CCCC3)sc2C1=O [Example 34, 6-{[2-(dimethylamino)ethyl]amino}-2-(pyrrolidin-1-ylcarbonyl)-1,3-benzothiazole-4,7-dione]

- melting point: 163 to 164 °C
Structure (SMILES): CC(C)CNC(=O)c1nc2c(s1)C(=O)C=C(NCCN(C)C)C2=O [Example 7, 5-{[2-(dimethylamino)ethyl]amino}-N-isobutyl-4,7-dioxo-4,7-dihydro-1,3-benzothiazole-2-carboxamide]

- melting point: 192 to 193 °C
Structure (SMILES): COc1ccc2c(c1)CCCN2C(=O)c1nc2c(s1)C(=O)C=C(NCCN(C)C)C2=O [Example 36, 5-{[2-(dimethylamino)ethyl]amino}-2-[(6-methoxy-3,4-dihydroquinolin-1(2H)-yl)carbonyl]-1,3-benzothiazole-4,7-dione]

- melting point: 208 to 209 °C
Structure (SMILES): CN(C)CCNC1=CC(=O)c2sc(C(=O)Nc3ccc(F)cc3)nc2C1=O [Example 33, 5-{[2-(dimethylamino)ethyl]amino}-N-(4-fluorophenyl)-4,7-dioxo-4,7-dihydro-1,3-benzothiazole-2-carboxamide]

- melting point: 193 to 194 °C
Structure (SMILES): O=C1C(NCCN2CCCC2)=CC(=O)c2sc(C(=O)N3CCN(C(=O)N4CCOCC4)CC3)nc21 [Example 17, 2-{[4-(morpholin-4-ylcarbonyl)piperazin-1-yl]carbonyl}-5-[(2-pyrrolidin-1-ylethyl)amino]-1,3-benzothiazole-4,7-dione]
